Patent US20240173325A1, “METHODS FOR TREATING SPINAL MUSCULAR ATROPHY” (Genentech, Inc., priority 2022, published 2024)

Tests used:
clinical = assay: clinical; parameters: species or system human; conditions: in vivo
Description: The fetal subject assigned to this treatment plan received risdiplam through the carrier after all basic organ systems of the fetal subject had substantially completed fundamental embryogenesis in its third trimester of development in a range of from about thirty-two and a half weeks to its delivery from the carrier at about thirty-eight and a half weeks gestation. During this period, risdiplam was administered to the fetal subject through a carrier treatment cycle in which a single daily dose of 5 mg of risdiplam was administered orally to the carrier of the fetal subject.
Risdiplam trough drug levels were obtained from the carrier and the subject as the neonatal subject at time points represented in Table 2A and Table 2B from 32.5 weeks gestation prior to administration of risdiplam to the carrier through 43 days post-delivery. The risdiplam drug levels detected in plasma (ng/mL) of the carrier and the neonatal subject were determined by liquid chromatography-tandem mass spectroscopy (LC-MS/MS).
Since it was determined that a level of the risdiplam in the cord blood of the neonatal subject was less than about 100 ng/mL or about 0.1 mg/L when the neonatal subject was bom, the neonatal treatment cycle was initiated. The neonatal treatment cycle began 8 days after birth (d8) and included administering risdiplam to the neonatal subject at a single daily dose of 0.15 mg/kg.
In addition, in Table 3, blood samples for risdiplam PK and PD were collected from the carrier prior to the first dose of the risdiplam and 24-hours post- dose of the risdiplam. PK/PD samples were collected from the carrier every two weeks for up to six weeks after delivery to assess risdiplam clearance. At the time of delivery, samples of umbilical cord blood and amniotic fluid were collected to assess risdiplam exposure to the fetal subject in utero. Collection of the cord blood and the amniotic fluid could have also included collection of the cord blood and the amniotic fluid during pregnancy of the carrier if an amniocentesis was deemed to be needed.

SMN protein = SMN protein levels in whole blood (Roche Elecsys immunoassay); type: in vivo, human
Description: Table 7A and Table 7B presents SMN protein levels in whole blood (measured in ng/mL) in the carrier and the subject as the fetal subject and the neonatal subject of this Example, and reference values are shown in Table 7C below. Table 7B is a continuation of Table 7A from 32.5 weeks gestation prior to administration of risdiplam to the carrier through 43 days post-delivery. SMN protein levels in the whole blood were performed using an immunoassay developed by Roche Diagnostics on the Elecsys® platform.

rat fetuses = conditions: dams treated at about 1 mg/kg/day to about 7.5 mg/kg/day; cited from earlier work
[1] = rodents and rabbits; cited from earlier work

Cc1cn2nc(-c3cc(=O)n4cc(N5CCNC6(CC6)C5)ccc4n3)cc(C)c2n1 [risdiplam, 7-(4,7-diazaspiro[2.5]octan-7-yl)-2-(2,8-dimethylimidazo[1,2-b]pyridazin-6-yl)-4H-pyrido[1,2-a]pyrimidin-4-one]
Risdiplam level in amniotic fluid (AF) (clinical; female, human): 5.09 ng/mL | Risdiplam level in plasma, venous (V) (clinical; female, human): 15.6 ng/mL | concentration at 43 d postnatal (clinical; female, human): 0.4 ng/mL | Risdiplam level in plasma (clinical; female, human, 20 d postnatal): 0.7 ng/mL | Risdiplam level in plasma (clinical; female, human, 29 d postnatal): 0.6 ng/mL | Kp (clinical; female, human, Amniotic fluid risdiplam level relative to carrier plasma venous level): ~0.33 | Kp (clinical; female, human, Cord venous and arterial plasma risdiplam level relative to carrier plasma level): ~0.69 | Level of risdiplam in cord blood (clinical; human): less than 100 ng/mL | Risdiplam level in cord plasma, arterial (A) (clinical; human): 10.4 ng/mL | Risdiplam level in cord plasma, venous (V) (clinical; human): 11.2 ng/mL | half-life (clinical; human): 46 h | Risdiplam level in plasma (clinical; human, 8 d postnatal): 0.6 ng/mL | concentration at 43 d postnatal (clinical; human, po, 0.15 mg/kg/day): 62 ng/mL | Risdiplam trough level in plasma (clinical): BLQ* | Placental transfer from carrier to fetal subject (clinical; po): crosses the placenta | SMN protein level in whole blood relative to reference amounts (SMN protein; at d0, versus reference study (FIG. 2)): about two | SMN protein level in whole blood (SMN protein; carrier, 32.5 WG (pre-risdiplam)): 7.7 ng/mL | SMN protein level in whole blood (SMN protein; carrier, 36 WG): 6.3 ng/mL | SMN protein level in whole blood (SMN protein; carrier, 38 WG): 6.0 ng/mL | SMN protein level in whole blood (SMN protein; carrier, birth 38.5 WG): 4.0 ng/mL | SMN protein level in whole blood (SMN protein; carrier, d 20 post birth): 5.0 ng/mL | SMN protein level in whole blood (SMN protein; carrier, d 29 post birth): 5.1 ng/mL | SMN protein level in whole blood (SMN protein; carrier, d 43 post birth): 4.6 ng/mL | Decline of SMN protein level (SMN protein; carrier, from prenatal treatment until delivery): 48% | Increase of SMN protein level (SMN protein; carrier, postpartum period): 15-28% | Increase of SMN protein level (SMN protein; neonatal subject, at d43 following drug initiation on d8): 36% | SMN protein level in whole blood (SMN protein; neonatal subject, birth 38.5 WG (cord)): 9.4 ng/mL | SMN protein level in whole blood (SMN protein; neonatal subject, d 8, no drug since birth): 4.5 ng/mL | SMN protein level in whole blood (SMN protein; neonatal subject, d 43, oral 0.15 mg/kg/day from d8): 6.1 ng/mL | Findings in rat fetuses (rat fetuses): weight loss and minor differences in skeletal ossification | Placental transfer [1]: crosses the placenta
